Experimental data taken from patent US7220745B2, “Heterocyclic compounds useful to treat HCV” (Rigel Pharmaceuticals, priority 2003, dated 2007).

test system: HCV replicon; assay: HCV replicon assay (luciferase, 5-2 Luc replicon cells); format: cell-based; settings: Hepatitis C virus, 24 hours with compound, luciferase activity
Excerpt: In one embodiment, the inhibitory activity of the compounds can be confirmed in a replicon assay that assesses the ability of a test compound to block or inhibit HCV replication in replicon cells. One example of a suitable replicon assay is the liver cell-line Huh 7-based replicon assay described in Lohmann et al., 1999, Science 285:110–113. A specific example of this replicon assay which utilizes luciferase translation is provided in the Examples Section. In one embodiment of this assay, the amount of test compound that yields a 50% reduction in translation as compared to a control cell (IC50) may be determined.
The inhibitory activity of certain exemplary compounds of the invention was confirmed using an HCV replicon assay. The HCV replicon can include such features as the HCV 5′ untranslated region including the HCV IRES, the HCV 3′ untranslated region, selected HCV genes encoding HCV polypeptides, selectable markers, and a reporter gene such as luciferase, GFP, etc. In the assay, actively dividing 5–2 Luc replicon-comprising cells (obtained from Ralf Bartenschlager; see Lohmann et al., 1999, Science 285:110–113) were seeded at a density of between about 5,000 and 7,500 cells/well onto 96 well plates (about 90 μl of cells per well) and incubated at 37° C. and 5% CO2 for 24 hours. Then, the test compound (in a volume of about 10 μl) was added to the wells at various concentrations and the cells were incubated for an additional 24 hours before luciferase assay. Briefly, the Bright-Glo reagent was diluted 1:1 with PBS and 100 μl of diluted reagent was added to each well. After 5 min of incubation at room temperature, luciferin emission was quantified with a luminometer. In this assay, the amount of test compound that yielded a 50% reduction in luciferase activity (IC50) was determined.

Row | Compound | IC50 [µM]
1 | O=[N+]([O-])c1cccc(-c2cnc(-c3c(Cl)cccc3Cl)s2)c1 [Compound 17, 2-(2,6-dichlorophenyl)-5-(3-nitrophenyl)thiazole] | > 10
2 | O=C(Nc1ccccc1-c1cc(-c2c(Cl)cccc2Cl)no1)C(Cl)Cl [Compound 18, 2,2-Dichloro-N-[2-[3-(2,6-dichlorophenyl)-5-isoxazolyl]phenyl]Acetamide] | > 10
3 | O=C(Nc1cccc(-c2cnc(-c3c(Cl)cccc3Cl)s2)c1)C(Cl)Cl [Compound 19, 2,2-Dichloro-N-[3-[2-(2,6-dichlorophenyl)-5-thiazolyl]phenyl]Acetamide] | > 10
4 | Nc1cccc(-c2cnc(-c3c(Cl)cccc3Cl)s2)c1 [Compound 20, 2-(2,6-dichlorophenyl)-5-(3-aminophenyl)thiazole] | > 10
5 | O=C(Nc1cccc(-c2cc(-c3c(Cl)cccc3Cl)on2)c1)C(Cl)Cl [Compound 39, 2,2-Dichloro-N-[3-[5-(2,6-dichlorophenyl)-3-isoxazolyl]phenyl]Acetamide] | < 10
6 | O=C(Nc1ccc(-c2cc(-c3ccccc3Cl)no2)cc1)C(Cl)Cl [Compound 55, 2,2-Dichloro-N-[4-[3-(2-chlorophenyl)-5-isoxazolyl]phenyl]Acetamide] | ≤ 10
7 | O=C(Nc1ccc(-c2cc(-c3c(F)cccc3F)no2)cc1)C(Cl)Cl [Compound 59, 2,2-Dichloro-N-[4-[3-(2,6-difluorophenyl)-5-isoxazolyl]phenyl]Acetamide] | ≤ 10
8 | O=C(Nc1ccc(-c2cc(-c3c(Cl)cccc3Cl)no2)cc1)C(Cl)Cl [Compound 60, 2,2-Dichloro-N-[4-[3-(2,6-dichlorophenyl)-5-isoxazolyl]phenyl]Acetamide] | > 10
